From patent US10570122B2, “Compounds with anti-tumoral activity” (AB Science, priority 2015, dated 2020)

Experiments:
PANC1 = test: CellTiter-Blue cell-based survival/proliferation assay, PANC1; settings: Homo sapiens, PANC-1; PANC_1 pancreas tumor cell line, 48 h
How it was run: (§1)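 Compounds, diluted tenfold serially over 0–10 μM, are applied to 1·10^4 seeded cells per well for 48 h at 37 °C. Resorufin formed during a further 4 h with CellTiter-Blue is detected by fluorescence emission at 590 nm.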

HGC27 = test: CellTiter-Blue cell-based survival/proliferation assay, HGC27; settings: Homo sapiens, HGC-27; HGC27 stomach tumor cell line, 48 h
How it was run: as §1

U118 = test: CellTiter-Blue cell-based survival/proliferation assay, U118; settings: Homo sapiens; U118 glioblastoma cell line, 48 h
Protocol: (§2) Cell-Based Proliferation Screening of Compounds
(§3) CellTiter-Blue cell-based survival/proliferation assay (Promega G8080) was performed on tumor cell lines. A total of 1·10^4 cells/well/50 μl were seeded in a 96-wells plate. Treatment was initiated by addition of a 2× drug solution of 1/10 serial dilutions ranging from 0 to 10 μM. Cells were grown for 48 h at 37° C. and then incubated with 10 μl/well of Promega CellTiter-Bleue reagent for 4 h at 37° C. The amount of resorufin dye formed was quantified by its fluorescence emission at 590 nm using a scanning multiwell spectrophotometer (OPTIMA, BMG labtech, France). A blank well without cells was used as a background control for the spectrophotometer.

CALU6 = test: CellTiter-Blue cell-based survival/proliferation assay, CALU6; settings: Homo sapiens, Calu-6; CALU6 lung tumor cell line, 48 h
How it was run: as §1

A4513 = test: CellTiter-Blue cell-based survival/proliferation assay, A4513; settings: Homo sapiens; A4513 Ewing cell line, 48 h
Protocol: as §2, §3

HCT116 = test: CellTiter-Blue cell-based survival/proliferation assay, HCT116; settings: Homo sapiens, HCT-116; HCT116 colorectal tumor cell line, 48 h
How it was run: as §1

REC1 = test: CellTiter-Blue cell-based survival/proliferation assay, REC1; settings: Homo sapiens, Lymphoma cell line REC1, 48 h, read-out: Anti-tumoral activity (measured IC50) REC1
How it was run: as §1

HEPG2 = test: CellTiter-Blue cell-based survival/proliferation assay, HEPG2; settings: Homo sapiens; HEPG2 liver tumor cell line, 48 h
How it was run: as §1

DU145 = test: CellTiter-Blue cell-based survival/proliferation assay, DU145; settings: Homo sapiens, DU-145; DU145 prostate tumor cell line, 48 h
How it was run: as §1

PC3 = test: CellTiter-Blue cell-based survival/proliferation assay, PC3; settings: Homo sapiens, PC-3; PC3 prostate tumor cell line, 48 h
How it was run: as §1

MDAMB231 = test: CellTiter-Blue cell-based survival/proliferation assay, MDAMB231; settings: Homo sapiens, MDA-MB-231; MDAMB231 breast tumor cell line, 48 h
How it was run: as §1

BXPC3 = test: CellTiter-Blue cell-based survival/proliferation assay, BXPC3; settings: Homo sapiens, BXPC-3; BXPC3 pancreas tumor cell line, 48 h
How it was run: as §1

A375 = test: CellTiter-Blue cell-based survival/proliferation assay, A375; settings: Homo sapiens, A-375; A375 melanoma cell line, 48 h
Protocol: as §2, §3

ACHN = test: CellTiter-Blue cell-based survival/proliferation assay, ACHN; settings: Homo sapiens; ACHN kidney tumor cell line, 48 h
How it was run: as §1

MELWO = test: CellTiter-Blue cell-based survival/proliferation assay, MELWO; settings: Homo sapiens; MEL_WO melanoma cell line, 48 h
Protocol: as §2, §3

HEP2 = test: CellTiter-Blue cell-based survival/proliferation assay, HEP2; settings: Homo sapiens, HEp-2; HEP2 head & neck tumor cell line, 48 h
How it was run: as §1

PLCPRF5 = test: CellTiter-Blue cell-based survival/proliferation assay, PLCPRF5; settings: Homo sapiens, PLC-PRF-5; PLC_PRF5 liver tumor cell line, 48 h
How it was run: as §1

BT20 = test: CellTiter-Blue cell-based survival/proliferation assay, BT20; settings: Homo sapiens, BT-20; BT20 breast tumor cell line, 48 h
How it was run: as §1

A498 = test: CellTiter-Blue cell-based survival/proliferation assay, A498; settings: Homo sapiens; A498 kidney tumor cell line, 48 h
How it was run: as §1

OPM2 = test: CellTiter-Blue cell-based survival/proliferation assay, OPM2; settings: Homo sapiens, OPM-2, Myeloma cell line OPM2, 48 h, read-out: Anti-tumoral activity (measured IC50) OPM2
How it was run: as §1

A549 = test: CellTiter-Blue cell-based survival/proliferation assay, A549; settings: Homo sapiens; A549 lung tumor cell line, 48 h
How it was run: as §1

CLS354 = test: CellTiter-Blue cell-based survival/proliferation assay, CLS354; settings: Homo sapiens, CLS-354; CLS354_4 head & neck tumor cell line, 48 h
How it was run: as §1

H1299 = test: CellTiter-Blue cell-based survival/proliferation assay, H1299; settings: Homo sapiens, NCI-H1299; H1299 lung tumor cell line, 48 h
How it was run: as §1

U87MG = test: CellTiter-Blue cell-based survival/proliferation assay, U87MG; settings: Homo sapiens, U-87 MG; U87_MG glioblastoma cell line, 48 h
Protocol: as §2, §3

DLD1 = test: CellTiter-Blue cell-based survival/proliferation assay, DLD1; settings: Homo sapiens, DLD-1; DLD_1 colorectal tumor cell line, 48 h
How it was run: as §1

HUT78 = test: CellTiter-Blue cell-based survival/proliferation assay, HUT78; settings: Homo sapiens, Lymphoma cell line HUT78, 48 h, read-out: Anti-tumoral activity (measured IC50) HUT78
How it was run: as §1

TOV112D = test: CellTiter-Blue cell-based survival/proliferation assay, TOV112D; settings: Homo sapiens; TOV112D ovary tumor cell line, 48 h
How it was run: as §1

AGS = test: CellTiter-Blue cell-based survival/proliferation assay, AGS; settings: Homo sapiens; AGS stomach tumor cell line, 48 h
How it was run: as §1

SW579 = test: CellTiter-Blue cell-based survival/proliferation assay, SW579; settings: Homo sapiens; SW579 head & neck tumor cell line, 48 h
How it was run: as §1

MESSA = test: CellTiter-Blue cell-based survival/proliferation assay, MESSA; settings: Homo sapiens, MES-SA; MESSA ovary tumor cell line, 48 h
How it was run: as §1

HL60 = test: CellTiter-Blue cell-based survival/proliferation assay, HL60; settings: Homo sapiens, HL-60, Leukemia cell line HL60, 48 h, read-out: Anti-tumoral activity (measured IC50) HL60
How it was run: as §1

U2OS = test: CellTiter-Blue cell-based survival/proliferation assay, U2OS; settings: Homo sapiens; U2OS osteosarcoma cell line, 48 h
Protocol: as §2, §3

KARPAS299 = test: CellTiter-Blue cell-based survival/proliferation assay, KARPAS299; settings: Homo sapiens, KARPAS-299, Lymphoma cell line KARPAS299, 48 h, read-out: Anti-tumoral activity (measured IC50) KARPAS299
How it was run: as §1

| Structure (SMILES) | IC50 (PANC1) | IC50 (HGC27) | IC50 (U118) | IC50 (CALU6) | IC50 (A4513) | IC50 (HCT116) | IC50 (HEPG2) | IC50 (DU145) | IC50 (PC3) | IC50 (MDAMB231) | IC50 (BXPC3) | IC50 (A375) | IC50 (ACHN) | IC50 (MELWO) | IC50 (HEP2) | IC50 (PLCPRF5) | IC50 (BT20) | IC50 (A498) | IC50 (OPM2) | IC50 (CLS354) | also measured |
| --- | --- | --- | --- | --- | --- | --- | --- | --- | --- | --- | --- | --- | --- | --- | --- | --- | --- | --- | --- | --- | --- |
| COc1ccc(C)c(Nc2ncc(-c3ccc(-n4cccn4)nc3)o2)c1 [Example 001, (5-Methoxy-2-methyl-phenyl)-[5-(6-pyrazol-1-yl-pyridin-3-yl)-oxazol-2-yl]-amine] | > 1 µM | > 1 µM | > 1 µM | > 1 µM | > 1 µM | > 1 µM | > 1 µM | > 1 µM | > 1 µM | > 1 µM | > 1 µM | > 1 µM | > 1 µM | > 1 µM | > 1 µM | > 1 µM | > 1 µM | > 1 µM | > 1 µM | > 1 µM | IC50 (REC1): 0.5 to 1 µM; IC50 (A549): > 1 µM; IC50 (H1299): > 1 µM; IC50 (U87MG): > 1 µM; IC50 (DLD1): > 1 µM; IC50 (HUT78): > 1 µM; IC50 (TOV112D): > 1 µM; IC50 (AGS): > 1 µM; IC50 (SW579): > 1 µM; IC50 (MESSA): > 1 µM; IC50 (HL60): > 1 µM; IC50 (U2OS): > 1 µM; IC50 (KARPAS299): 0.5 to 1 µM |
| CCOCc1ccc(C)c(Nc2ncc(-c3ccc(-n4cccn4)c(OC)c3)o2)c1 [Example 002, (5-Ethoxymethyl-2-methyl-phenyl)-[5-(3-methoxy-4-pyrazol-1-yl-phenyl)-oxazol-2-yl]-amine] | > 1 µM | > 1 µM | > 1 µM | > 1 µM | > 1 µM | > 1 µM | > 1 µM | > 1 µM | > 1 µM | > 1 µM | > 1 µM | > 1 µM | > 1 µM | > 1 µM | > 1 µM | > 1 µM | > 1 µM | > 1 µM | > 1 µM | > 1 µM | IC50 (REC1): > 1 µM; IC50 (A549): > 1 µM; IC50 (H1299): > 1 µM; IC50 (U87MG): > 1 µM; IC50 (DLD1): > 1 µM; IC50 (HUT78): > 1 µM; IC50 (TOV112D): > 1 µM; IC50 (AGS): > 1 µM; IC50 (SW579): > 1 µM; IC50 (MESSA): > 1 µM; IC50 (HL60): > 1 µM; IC50 (U2OS): > 1 µM; IC50 (KARPAS299): > 1 µM |
| CCOCc1ccc(C)c(Nc2nnc(-c3ccc(N4CCNC4=O)cc3)o2)c1 [Example 008, 1-{4-[5-(5-Ethoxymethyl-(2-methyl-phenylamino))-[1,3,4]oxadiazol-2-yl]-phenyl}-imidazolidin-2-one] | > 1 µM | 0.5 to 1 µM | > 1 µM | > 1 µM | > 1 µM | ≤ 0.1 µM | > 1 µM | > 1 µM | ≤ 0.1 µM | > 1 µM | > 1 µM | ≤ 0.1 µM | ≤ 0.1 µM | 0.5 to 1 µM | ≤ 0.1 µM | > 1 µM | > 1 µM | > 1 µM | ≤ 0.1 µM | 0.1 to 0.5 µM | IC50 (REC1): ≤ 0.1 µM; IC50 (H1299): > 1 µM; IC50 (U87MG): > 1 µM; IC50 (DLD1): > 1 µM; IC50 (HUT78): ≤ 0.1 µM; IC50 (TOV112D): ≤ 0.1 µM; IC50 (AGS): > 1 µM; IC50 (SW579): 0.5 to 1 µM; IC50 (MESSA): > 1 µM; IC50 (HL60): ≤ 0.1 µM; IC50 (U2OS): > 1 µM; IC50 (KARPAS299): ≤ 0.1 µM |
| CCOCc1ccc(C)c(Nc2nnc(-c3ccc(-n4cccn4)cc3)o2)c1 [Example 009, (5-Ethoxymethyl-2-methyl-phenyl)-[5-(4-pyrazol-1-yl-phenyl)-[1,3,4]oxadiazol-2-yl]-amine] | > 1 µM | > 1 µM | > 1 µM | > 1 µM | > 1 µM | > 1 µM | > 1 µM | > 1 µM | > 1 µM | > 1 µM | > 1 µM | > 1 µM | > 1 µM | > 1 µM | > 1 µM | > 1 µM | > 1 µM | > 1 µM | > 1 µM | > 1 µM | IC50 (A549): > 1 µM; IC50 (H1299): > 1 µM; IC50 (U87MG): > 1 µM; IC50 (DLD1): > 1 µM; IC50 (TOV112D): > 1 µM; IC50 (AGS): > 1 µM; IC50 (SW579): > 1 µM; IC50 (MESSA): > 1 µM; IC50 (HL60): > 1 µM; IC50 (U2OS): > 1 µM |
